Data as given in US11040028B2, “Penicinotam derivative, preparation method and use thereof” (OCEAN UNIVERSITY OF CHINA, priority 2017, dated 2021).

Experiments:
Type in all cases: cell-based
[1] = system: human fibrosarcoma cells HT-1080; test: Anti-fibrosis activity test: inhibition of proliferation of human fibrosarcoma cells HT-1080 (CCK-8); details: Homo sapiens, HT-1080, 48 h
Outline: (§1)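 Cells were seeded at 2×10^4 cells/mL and allowed to adhere for 24 h at 37° C, 5% CO2, then exposed to graded compound concentrations in triplicate for 48 h. CCK-8 was added for 2 h, A450 was read, and IC50 was derived from inhibition rate = (1−Ai/Ao)×100%.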

BHK-21 cells = test: Anti-fibrosis activity test: inhibition of BHK-21 cell proliferation (CCK-8); details: Mesocricetus auratus, BHK-21, 48 h
Outline: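 BHK-21 cells seeded at 2×10^4 cells/mL, allowed to adhere 24 h at 37° C, 5% CO2, then exposed to compounds at graded concentrations in triplicate for 48 h. CCK-8 added for 2 h and absorbance read at 450 nm; inhibition rate taken as (1−Ai/Ao)×100% and IC50 fitted.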

[2] = system: human hepatic stellate cells LX-2; test: Anti-fibrosis activity test: inhibition of proliferation of human hepatic stellate cells LX-2 (CCK-8); details: Homo sapiens, 48 h
Outline: as §1

[3] = system: human dermal fibroblasts CCC-ESF-1; test: Anti-fibrosis activity test: inhibition of proliferation of human dermal fibroblasts CCC-ESF-1 (CCK-8); details: Fibroblast
Outline: as §1

[4] = system: mouse macrophages (RAW264.7); test: Lipopolysaccharide-induced NO secretion in macrophages (Griess); details: Mus musculus, RAW264.7, 24 h, RAW264.7, LPS 1 μg/ml, a/b isomers given as first/second symbol, read-out: IC50 (μM), inhibition of lipopolysaccharide-induced NO secretion in macrophages
Outline: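 RAW264.7 cells in DMEM with 10% FBS were treated with test compounds at several concentrations, then stimulated with LPS (1 μg/ml) for 24 hours. Nitrite in the supernatant was measured by Griess reaction at 548 nm, and percent inhibition was calculated against blank-medium controls.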

NF-κB = test: Immunological activity test: inhibition of NF-κB activity; details: initial concentration of 30 μM; a/b isomers given as first/second symbol; read-out: IC50 (μM), inhibitory activity against NF-κB
Outline: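 Single-point testing at 30 μM preceded IC50 determination.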

[5] = system: human lung fibroblasts HFL1; test: Anti-fibrosis activity test: inhibition of proliferation of human lung fibroblasts HFL1 (CCK-8); details: Homo sapiens, HFL1, 48 h
Outline: as §1

[6] = system: human embryonic lung fibroblast IMR-90; test: Anti-fibrosis activity test: inhibition of proliferation of human embryonic lung fibroblast IMR-90 (CCK-8)
Outline: as §1

[7] = system: cardiac fibroblast RAT-iCell-C002; test: Anti-fibrosis activity test: inhibition of proliferation of cardiac fibroblast RAT-iCell-C002 (CCK-8); details: Cardiac fibroblast, 48 h
Outline: as §1

[8] = human fibrosarcoma cells HT-1080, CCK-8, 48 hours
[9] = CCK-8, 48 hours after administration
[10] = human hepatic stellate cells LX-2, CCK-8, 48 hours
[11] = human dermal fibroblasts CCC-ESF-1, CCK-8, 48 hours
[12] = human lung fibroblasts HFL1, CCK-8, 48 hours
[13] = human embryonic lung fibroblast IMR-90, CCK-8, 48 hours
[14] = cardiac fibroblast RAT-iCell-C002, CCK-8, 48 hours
[15] = Homo sapiens, CCC-ESF-1 cells, 48 h, CCK-8
[16] = Homo sapiens, IMR-90 cells, 48 h, CCK-8

SMILES	IC50 [1, 8] [mM]	IC50 (BHK-21 cells; [9]) [mM]	IC50 [2, 10] [mM]	IC50 [3, 11] [mM]	IC50 [4] [µM]	IC50 (NF-κB) [µM]	IC50 [5, 12] [mM]	IC50 [6, 13] [mM]	IC50 [7, 14] [mM]	IC50 ([1]; HT-1080 cells, 48 h, CCK-8) [mM]	IC50 (BHK-21 cells; 48 h, CCK-8) [mM]	IC50 ([2]; LX-2, 48 h, LX-2 cells, CCK-8) [mM]	IC50 [3, 15] [mM]	IC50 ([5]; HFL1 cells, 48 h, CCK-8) [mM]	IC50 [6, 16] [mM]	IC50 ([7]; RAT-iCell-C002 cells, CCK-8) [mM]
O=C1c2c(nc3ccc(OC(F)(F)F)cc3c2O)-c2cccn21 [Compound 306b, 9-hydroxy-7-(trifluoromethoxy)-10H-pyrrolizino[1,2-b]quinolin-10-one]	0.05 to 5	0.05 to 5	0.05 to 5	0.05 to 5	0.1 to 1	1 to 10	0.05 to 5	0.05 to 5	0.05 to 5							
O=C1c2c(nc3c(C(F)(F)F)cccc3c2O)-c2cccn21 [Compound 448b, 9-hydroxy-5-(trifluoromethyl)-10H-pyrrolizino[1,2-b]quinolin-10-one]	< 0.05	0.05 to 5	0.05 to 5	0.05 to 5	1 to 10	1 to 10	0.05 to 5	0.05 to 5	0.05 to 5							
O=C1c2c(n(CCN3CCNCC3)c3ccccc3c2=O)-c2cccn21 [Compound 98a, 4-(2-(Piperazin-1-yl)ethyl)-9H-pyrrolizino[1,2-b]quinoline-9,10(4H)-dione]	0.05 to 5	< 0.05	< 0.05	< 0.05	1 to 10	1 to 10	0.05 to 5	< 0.05	0.05 to 5							
O=C1c2c(n(Cc3ccc(F)cc3F)c3ccccc3c2=O)-c2cccn21 [Compound 578a, 4-(2,4-Difluorobenzyl)-9H-pyrrolizino[1,2-b]quinoline-9,10(4H)-dione]	< 0.05	0.05 to 5	0.05 to 5	0.05 to 5	1 to 10	1 to 10	0.05 to 5	0.05 to 5	0.05 to 5							
O=C1c2c([nH]c3c(Cl)cccc3c2=O)-c2cccn21 [Compound 443a, 5-Chloro-9H-pyrrolizino[1,2-b]quinoline-9,10(4H)-dione]	0.05 to 5	0.05 to 5	0.05 to 5	0.05 to 5	1 to 10	1 to 10	0.05 to 5	0.05 to 5	0.05 to 5							
CC(C)(C)c1ccc(COc2c3c(nc4ccccc24)-c2cccn2C3=O)cc1 [Compound 605b, 9-((4-(tert-butyl)benzyl)oxy)-10H-pyrrolizino[1,2-b]quinolin-10-one]	0.05 to 5	0.05 to 5	0.05 to 5	0.05 to 5	1 to 10	1 to 10	0.05 to 5	0.05 to 5	0.05 to 5							
O=C1c2c(nc3ccccc3c2OCc2cc(F)cc(F)c2)-c2cccn21 [Compound 579b, 9-((3,5-difluorobenzyl)oxy)-10H-pyrrolizino[1,2-b]quinolin-10-one]	0.05 to 5	0.05 to 5	0.05 to 5	0.05 to 5	1 to 10	0.1 to 1	0.05 to 5	0.05 to 5	0.05 to 5							
O=C(Cn1c2c(c(=O)c3ccccc31)C(=O)n1cccc1-2)c1ccc(-c2ccccc2)cc1 [Compound 50a, 4-(2-([1,1′-Biphenyl]-4-yl)-2-oxoethyl)-9H-pyrrolizino[1,2-b]quinoline-9,10(4H)-dione]	0.05 to 5	0.05 to 5	5 to 20	0.05 to 5	1 to 10	1 to 10	0.05 to 5	5 to 20	5 to 20							
Cc1cc(C)c2c(=O)c3c([nH]c2c1)-c1cccn1C3=O [Compound 768a, 6,8-Dimethyl-9H-pyrrolizino[1,2-b]quinoline-9,10(4H)-dione]					1 to 10	0.1 to 1				0.05 to 5	0.05 to 5	0.05 to 5	0.05 to 5	0.05 to 5	0.05 to 5	0.05 to 5
O=C1c2c(n(Cc3cccc(F)c3)c3c(F)cccc3c2=O)-c2cccn21 [Compound 458a, 5-Fluoro-4-(3-fluorobenzyl)-9H-pyrrolizino[1,2-b]quinoline-9,10(4H)-dione]	0.05 to 5	< 0.05	0.05 to 5	0.05 to 5	1 to 10	0.1 to 1	0.05 to 5	0.05 to 5	0.05 to 5							
O=C1c2c([nH]c3ccc(Br)cc3c2=O)-c2cccn21 [Compound 246a, 7-Bromo-9H-pyrrolizino[1,2-b]quinoline-9,10(4H)-dione]	0.05 to 5	5 to 20	0.05 to 5	0.05 to 5	1 to 10	1 to 10	0.05 to 5	0.05 to 5	0.05 to 5							
Cc1cc2[nH]c3c(c(=O)c2cc1C)C(=O)n1cccc1-3 [Compound 756a, 6,7-Dimethyl-9H-pyrrolizino[1,2-b]quinoline-9,10(4H)-dione]					0.1 to 1	1 to 10				0.05 to 5	0.05 to 5	0.05 to 5	0.05 to 5	0.05 to 5	0.05 to 5	0.05 to 5
O=C1c2c(nc3ccccc3c2OCc2ccc(Br)cc2)-c2cccn21 [Compound 594b, 9-((4-bromobenzyl)oxy)-10H-pyrrolizino[1,2-b]quinolin-10-one]	0.05 to 5	0.05 to 5	0.05 to 5	0.05 to 5	1 to 10	1 to 10	0.05 to 5	0.05 to 5	0.05 to 5							
O=C(O)c1ccccc1-c1ccc(Cn2c3c(c(=O)c4ccccc42)C(=O)n2cccc2-3)cc1 [Compound 81a, 4′-((9,10-Dioxo-9H-pyrrolizino[1,2-b]quinolin-4(10H)-yl)methyl)-[1,1′-biphenyl]-2-carboxylic acid]	0.05 to 5	< 0.05	< 0.05	0.05 to 5	1 to 10	1 to 10	0.05 to 5	< 0.05	0.05 to 5							
O=C1c2c(nc3cccc(Cl)c3c2OCc2cccc(Cl)c2)-c2cccn21 [Compound 478b, 8-chloro-9-((3-chlorobenzyl)oxy)-10H-pyrrolizino[1,2-b]quinolin-10-one]	0.05 to 5	0.05 to 5	0.05 to 5	0.05 to 5	1 to 10	10 to 50	0.05 to 5	0.05 to 5	0.05 to 5							
O=C1c2c(n(Cc3cccc(Cl)c3F)c3ccccc3c2=O)-c2cccn21 [Compound 582a, 4-(3-Chloro-2-fluorobenzyl)-9H-pyrrolizino[1,2-b]quinoline-9,10(4H)-dione]	0.05 to 5	0.05 to 5	0.05 to 5	0.05 to 5	1 to 10	1 to 10	0.05 to 5	0.05 to 5	0.05 to 5							
O=C1c2c(n(Cc3ccccc3F)c3ccccc3c2=O)-c2cccn21 [Compound 599a, 4-(2-Fluorobenzyl)-9H-pyrrolizino[1,2-b]quinoline-9,10(4H)-dione]	0.05 to 5	0.05 to 5	0.05 to 5	0.05 to 5	1 to 10	0.1 to 1	0.05 to 5	0.05 to 5	0.05 to 5							
O=C1c2c(n(Cc3cc(C(F)(F)F)ccc3Cl)c3ccccc3c2=O)-c2cccn21 [Compound 611a, 4-(2-Chloro-5-(trifluoromethyl)benzyl)-9H-pyrrolizino[1,2-b]quinoline-9,10(4H)-dione]	0.05 to 5	0.05 to 5	0.05 to 5	0.05 to 5	10 to 50	0.1 to 1	0.05 to 5	0.05 to 5	0.05 to 5							
Cc1cccc2nc3c(c(O)c12)-c1cccn1C3=O [Compound 776b, 11-hydroxy-10-methyl-5H-pyrrolizino[2,1-b]quinolin-5-one]					1 to 10	0.1 to 1				0.05 to 5	0.05 to 5	0.05 to 5	0.05 to 5	0.05 to 5	0.05 to 5	0.05 to 5
